# Assays:
# Type in all cases: cell-based, human
# [1] = tested on: gamma globin-luciferase reporter constructs in K562 cells; test: BA inducibility of different gamma globin-reporter gene constructs in transiently transfected K562 cells
# Source text: The entire human globin gene locus, spanning approximately 150 kilobases, is shown schematically in FIG. 1. Depicted are the different globin structural genes and cis-active regulatory elements (e.g., promoters and enhancers). To construct gamma globin reporter gene plasmids, nucleic acid fragments comprising nucleotide sequences normally flanking (i.e., at either the 5' or 3' end of) the gamma globin gene were obtained and subcloned into a plasmid encoding a reporter gene. The human gamma globin 5' promoter fragment consisted of nucleotides -1200 to +30, relative to the start site of transcription (nucleotide numbers 38205 to 39435 of the human gamma globin gene in the GENEMBL database, accession number J00179). The promoter fragment was obtained from human genomic DNA by polymerase chain reaction (PCR) amplification using oligonucleotide primers of the sequences: […]
# These constructs are illustrated schematically in FIG. 2.
# In a first series of experiments, K562 cells transiently transfected with the different gamma globin-reporter genes described in Example 1 were treated with butyric acid (BA). After treatment, the level of reporter gene activity (i.e., luciferase activity) in the treated cells was compared to determine the BA-inducibility of the different reporter gene constructs. The results are shown graphically in FIG. 2, which illustrates the fold induction of luciferase activity by BA relative to untreated cells. […] All other constructs tested (including gammaSV40, beta3'PE, HS2/3gamma3'PE and gamma) were at least 2 fold less responsive to BA treatment.
# To test whether the increased sensitivity of the gamma globin promoter to BA was due to a specific property of the globin 3' Proximal Enhancer or if this was a property of transcriptional enhancers in general, two copies of the 72 bp repeat of the SV40 enhancer (isolated by PCR from the simian virus 40 genome) were substituted for the 3' Proximal Enhancer in the context of the gamma globin promoter (construct gammaSV40). […] This may be due to the unnatural proximity of these enhancer sequences to the gamma globin promoter in this construct. Normally, these sequence reside over 30 kB upstream of the promoter and one function of BA in vivo may be to promote interaction between the chromosomal LCR sequences and the gamma globin promoter. Artificially positioning the LCR components near the gamma globin promoter may have in fact complemented the effect of BA. Thus, empirically, it appears that maintaining the cis-active elements of the gamma globin locus in their natural context is important for developing the most sensitive reporter gene assay system for detecting gone induction by short chain fatty acids such as BA.
# GATA-1 mRNA = test: Northern hybridization of GATA-1 mRNA in treated K562 cells
# Experimental: (§1) Total RNA was prepared by the method of McDonald as described in Sambrook et al., (1989) Molecular Cloning: A Laboratory Manual, 2nd Edition, Cold Spring Harbor Laboratory Press. 10 μg total cellular RNA was electrophoresed through agarose gels containing 3.3% formaldehyde. The electrophoresed RNA was then transferred to nitrocellulose filters by standard methods. Each sample was hybridized to specific probes for gamma globin mRNA, mRNA encoding the erythroid specific transcription factor GATA-1 and 28S ribosomal RNA (which was used for standardization). The gamma globin and GATA-1 probes were cDNA probes, which were labeled with ^32 p by random priming reactions (Promega Biotech Inc.). The 28S ribosomal RNA probe was an oligonucleotide having the sequence 5' […] 3' (SEQ ID NO: 3), which was labeled by 5' end labeling using T4 polynucleotide kinase (New England Biolabs). Nucleotide probes were hybridized to the RNA nitrocellulose filters according to standard techniques. After hybridization, radioactive signals on the nitrocellulose filters were directly quantified using a BioRad GS-250 Molecular Imager. mRNA hybridization intensities were normalized to the amount of 28S ribosomal RNA present for each sample.
# [2] = tested on: gamma globin-regulated luciferase mRNA; test: cells; conditions: Homo sapiens, K562, 5 h, read-out: increase in luciferase mRNA
# Experimental: as §1, with “sample. The results are summarized below in Table 1:” for “sample.”
# To determine if BA exerts its inductive effects by acting directly on pre-existing proteins in the cells, the effect of the protein synthesis inhibitor cycloheximide (CHX) on BA-induced expression of RNA was analyzed. In these experiments, gamma3'PE cells were incubated with 150 μg/ml CHX for 2 hr prior to addition of BA (5 mM). Control cells were incubated with either CHX or BA alone or were mock incubated. Cells were harvested 5 hr later for preparation of total RNA. RNA samples were electrophoresed, transferred to nitrocellulose and hybridized to a ^32 P-labeled luciferase cDNA probe as described in Example 4. The radioactive signals on the filter were quantitated using a BioRad GS-250 Molecular Imager and mRNA levels were normalized to values obtained for mock treated samples. […]
compound,measurement,setting,value
"CCCC(=O)O [BA, butyric acid]",effect of LCR sequences on BA sensitivity of gamma3'PE construct,[1]; HS2/3gamma3'PE vs gamma3'PE,reduce the sensitivity of the gamma3'PE construct to BA
same,BA induction of beta3'PE construct,[1]; beta globin promoter with 3'Proximal Enhancer,not inducible
same,BA responsiveness of gamma3'PE construct,"[1]; gamma3'PE, fold induction relative to untreated cells",most responsive to BA
same,BA induction of gamma construct,[1]; gamma globin promoter without 3' Proximal Enhancer,"inducible, albeit to a lesser extent than when in the context of the 3' Proximal Enhancer"
same,SV40 enhancer effect on BA responsiveness of gamma globin promoter,[1]; gammaSV40,not effective in augmenting the responsiveness of the gamma globin promoter to BA
same,fold lower BA responsiveness of other constructs than gamma3'PE,"[1]; gammaSV40, beta3'PE, HS2/3gamma3'PE and gamma, transient transfection",at least 2 fold
same,BA induction of promoterless constructs,[1]; luciferase gene only or fused to 3'Proximal Enhancer,not induced by BA
same,fold induction at 5000 µM,"GATA-1 mRNA; Homo sapiens, K562, 96 h, read-out: Fold Induction, GATA-1 RNA",1
same,"Raw Value, GATA-1 RNA","GATA-1 mRNA; K562 cells, 5 mM, 96 hours",2.23 × 10^5
same,"Normalized Value, GATA-1 RNA","GATA-1 mRNA; normalized to 28S ribosomal RNA, K562 cells, 5 mM, 96 hours",5.8 × 10^4
same,fold induction at 5000 µM,[2],~6

# — patent US5700640A, “Inducers of gamma globin gene expression and screening assays therefor” (priority 1994, dated 1997)
